In patent publication USRE47193E1, “Selectively substituted quinoline compounds” (EISAI R&D MANAGEMENT CO., LTD., priority 2013, dated 2019):
“Also recorded” adds a separate entry of the source.

Key:
[1] = system: Pristane DBA/1 lupus disease model; assay: Pristane: DBA/1 lupus disease model; type: in vivo, mouse; settings: for auto-antibody specificities (titers): Pristane model, particularly robust impact on anti-RiboP titers
Procedure: FIG. 3A through FIG. 3E show results of testing compound ER-899742 in the Pristane: DBA/1 strain lupus disease model. Figure Legend: Female DBA/1 mice at 9 weeks of age were given an intraperitoneal injection of 0.5 ml pristane or PBS. At 9 weeks post-pristane animals were bled for auto-antibody titers. Once-a-day oral dosing with Vehicle (Veh; 0.5% methyl-cellulose) or 33 mg/kg, 100 mg/kg, or 300 mg/kg of ER-899742 was begun 10 weeks after pristane injection and continued for 13 weeks of treatment. Mice were euthanized after 13 weeks of compound treatment, and anti-dsDNA (FIG. 3A), anti-Sm/nRNP (FIG. 3B), anti-histone (FIG. 3C) and anti-RiboP (FIG. 3D) titers were measured in blood plasma samples by ELISA (statistical significance of treatment versus vehicle determined by ANOVA with Dunnett's post-test). (FIG. 3E) The expression of IFN-regulated genes in whole blood was measured by a qPCR panel after 13 weeks of treatment with 300 mg/kg of ER-899742, and an IFN gene signature score was calculated (see Pharmacology Materials and Methods section for details regarding IFN score calculation).
FIG. 5A through FIG. 5D show results of testing ER-899464 in the Pristane disease model in the same experiment as that shown in FIG. 3A through FIG. 3E. Figure Legend: Mice were euthanized after 13 weeks of compound treatment, and anti-dsDNA (FIG. 5A), anti-Sm/nRNP (FIG. 5B), anti-histone (FIG. 5C), and anti-RiboP (FIG. 5D) titers were measured in blood plasma samples by ELISA (statistical significance of treatment versus vehicle determined by ANOVA with Dunnett's post-test).
FIG. 7A through FIG. 7G show the effect of dosing with ER-899742 in Pristane-induced disease in DBA/1J mice. Figure Legend: Female DBA/1 mice at 9 weeks of age were given an intraperitoneal injection of 0.5 ml pristane or PBS. At 10 weeks post-pristane animals were bled for autoantibody titers. Once-a-day oral dosing with Vehicle (Veh; 0.5% methyl-cellulose) or 33 mg/kg, or 300 mg/kg of ER-899742 was begun 11 weeks after pristane injection and continued for 14 weeks of treatment. Mice were euthanized after 14 weeks of compound treatment, and anti-dsDNA (FIG. 7A), anti-RiboP (FIG. 7B), anti-Sm/nRNP (FIG. 7C), and anti-histone (FIG. 7D) titers were measured in blood plasma samples by ELISA (statistical significance of treatment versus vehicle determined by ANOVA with Dunnett's post-test). The same plasma was used to measure total IgG titers by ELISA at the end of dosing (FIG. 7E). […] Pristane-treated mice in this experiment developed arthritis, with swollen joints in the rear paws. Arthritis scores were assigned according to severity, each paw was scored on a scale of 0-4 based on signs of swelling and inflammation. Scores were summed for the two hind paws assessed on each animal, and graphed in FIG. 7F with statistical assessment as for ELISA titers above.
FIG. 8 contains the result of treating for a month with ER-899742 in Pristane-induced disease in DBA/1J mice with advanced disease, after development of high levels of autoantibody. Figure Legend: DBA/1J mice were injected i.p. with pristane at 10 weeks of age. Three months later anti-RiboP and anti-dsDNA titers were taken, and animals randomized into groups with matching mean titers. Groups were sacrificed after one, two or four weeks of oral dosing with ER-899742, and RiboP titers measured in serum.
Mouse Lupus Disease Models.
Mouse lupus disease model strains. Female NZBWF1/J mice were purchased from Jackson Labs (Bar Harbor, Me.), both of which manifest with spontaneous lupus disease. Female DBA/1 mice were purchased from Harlan Laboratories (Indianapolis, Ind.) and at the indicated ages given an intraperitoneal injection of 0.5 ml pristane (2,6,10,14-Tetramethylpentadecane; Sigma, St. Louis, Mo.) to chemically induce lupus disease or of 0.5 ml PBS to generate age-matched, non-diseased control mice.
Assessment of auto-antibody titers by ELISA. […]

[2] = target: T1, Human TLR4 (Homo sapiens, UniProt O00206); assay: HEK-293 human TLR4 NF-kappaB luciferase reporter assay (LPS); type: cell-based; settings: ligand LPS, analyte NFkB-luciferase
T1 construct: stably and individually express human TLR4, TLR7 or TLR9 full-length ORF cDNAs; expressed in transfected cells; host or cells: HEK-293 (ATCC) with ELAM-1 NF-kappaB luciferase reporter
Procedure: To identify potent and selective TLR7/8 compounds, analogs were initially screened across a cell-based panel of human TLR4, TLR7, and TLR9 reporter lines (see Pharmacology Materials and Methods for more details). […] Certain compounds were advanced into the short-term in vivo (STIV) assay to determine dose-dependent activity and duration-of-action against mouse TLR7 (see Pharmacology Materials and Methods for more details). Select compounds were then evaluated for impact in one or more of the following mouse lupus disease models: BXSB-Yaa, NZBx-NZW, and Pristane DBA/1.
HEK-293 cells (ATCC) were engineered to stably express a NF-kappaB transcription factor inducible E-selectin (ELAM-1) luciferase reporter derived from the plasmid pGL3 (Promega) containing base pairs −2241 bp to −254 bp from the promoter of the human E-selectin gene (Accession No. NM_000450). These cells were then subsequently engineered to stably and individually express human TLR4, TLR7 or TLR9 full-length ORF cDNAs. Human TLR4 cDNA (Accession No. NM_138554) was cloned into pcDNA 3.0 expression vector (Invitrogen). TLR4 transfected cells were also engineered to express human MD-2 co-receptor [MD-2 cDNA (Accession No. NM_015364) was cloned into the pEF-BOS vector] and were supplemented with 10 nM soluble CD14 (R&D Systems) in the media to optimize LPS responsiveness. […]

[3] = 33 or 300 mg/kg QD oral, 14 weeks of treatment

T1 sequence (O00206 24-839): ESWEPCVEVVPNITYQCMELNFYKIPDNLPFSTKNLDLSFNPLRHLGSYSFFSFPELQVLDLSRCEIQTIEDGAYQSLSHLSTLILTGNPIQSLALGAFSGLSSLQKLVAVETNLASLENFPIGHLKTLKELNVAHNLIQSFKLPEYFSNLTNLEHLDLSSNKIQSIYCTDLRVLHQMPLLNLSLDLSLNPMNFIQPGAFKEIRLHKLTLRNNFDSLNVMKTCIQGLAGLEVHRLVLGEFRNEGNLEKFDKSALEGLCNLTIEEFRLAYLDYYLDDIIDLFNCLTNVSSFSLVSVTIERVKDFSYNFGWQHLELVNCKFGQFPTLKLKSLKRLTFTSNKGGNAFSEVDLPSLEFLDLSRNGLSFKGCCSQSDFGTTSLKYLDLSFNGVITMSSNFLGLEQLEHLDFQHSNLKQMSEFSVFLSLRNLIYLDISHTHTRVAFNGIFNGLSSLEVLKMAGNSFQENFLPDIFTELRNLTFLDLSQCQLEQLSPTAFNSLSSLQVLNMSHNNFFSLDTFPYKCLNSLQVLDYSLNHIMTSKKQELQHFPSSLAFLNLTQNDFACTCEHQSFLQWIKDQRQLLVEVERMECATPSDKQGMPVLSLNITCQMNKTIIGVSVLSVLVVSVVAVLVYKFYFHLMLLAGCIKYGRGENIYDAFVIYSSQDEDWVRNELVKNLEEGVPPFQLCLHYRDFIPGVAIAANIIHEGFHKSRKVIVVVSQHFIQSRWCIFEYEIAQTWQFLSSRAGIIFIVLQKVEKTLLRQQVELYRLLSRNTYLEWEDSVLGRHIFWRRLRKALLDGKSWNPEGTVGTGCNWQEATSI
T1 sequence (Q9Y6Y9 19-160 partner): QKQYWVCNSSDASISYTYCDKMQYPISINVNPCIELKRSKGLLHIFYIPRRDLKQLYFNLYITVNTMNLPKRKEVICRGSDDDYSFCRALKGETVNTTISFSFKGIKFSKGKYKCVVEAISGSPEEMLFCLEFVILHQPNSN

**Q.** `C[C@@H]1CN(c2ccc(C#N)c3ncccc23)C[C@H](C(=O)NC2CCN(C)CC2)O1` [ER-899464, (2R,6R)-4-(8-cyanoquinolin-5-yl)-6-methyl-N-(1-methylpiperidin-4-yl)morpholine-2-carboxamide] was tested. Which “auto-antibody specificities (titers)” value [1] did it give?
**A.** The value was “suppressed various auto-antibody specificities”.

**Q.** Which results are given for `C[C@@H]1CN(c2ccc(C#N)c3ncccc23)C[C@H](C(=O)N[C@H]2CNC[C@H]2F)O1.Cl` [ER-899742, (2R,6R)-4-(8-cyanoquinolin-5-yl)-N-[(3S,4R)-4-fluoropyrrolidin-3-yl]-6-methylmorpholine-2-carboxamide hydrochloride]?
**A.** IC50 [2]: > 10 µM; autoantibody against dsDNA and RiboP [1, 3]: Control of autoantibody against dsDNA and RiboP was seen; total IgG titers [1, 3]: minimal changes in overall IgG level; auto-antibody specificities (titers) [1]: suppressed various auto-antibody specificities; arthritis scores (hind paws) ([1]; Pristane-treated DBA/1 mice, 33 or 300 mg/kg, 14 weeks, hydrochloride): Dose-dependent statistically significant suppression was observed; also recorded: Control of arthritis; reversal of anti-RiboP or DNA titers ([1]; advanced disease, after 28 days of oral dosing): no statistically significant reversal
